Data published in patent publication US20100240604A1, “PROTECTED NUCLEOTIDE ANALOGS” (Alios BioPharma, Inc., priority 2009, published 2010).

Legend:
[1] = system: HCV RNA-replicating cell line, AVA5 (genotype 1b, subgenomic replicon); test: HCV replicon assay: intracellular HCV RNA levels by blot hybridization; type: cell-based, HCV genotype 1b; conditions: for EC50: 2-fold depression of HCV RNA relative to untreated cultures; for EC50 / EC90: normalized to β-actin RNA, daily treatment for three days, assessed at 72 hours; for EC90: 10-fold depression of HCV RNA relative to untreated cultures; for Antiviral activity (in words): results in Table 1
Experimental: (§1) Antiviral activity of the test compounds was assessed (Okuse, et al., Antivir. Res. (2005) 65:23) in the stably HCV RNA-replicating cell line, AVA5 (genotype 1b, subgenomic replicon, Blight, et al., Sci. (2000) 290:1972). Compounds were added to dividing cultures daily for three days. Cultures generally start the assay at 30-50% confluence and reach confluence during the last day of treatment. Intracellular HCV RNA levels and cytotoxicity were assessed 72 hours after treatment.
(§2) Quadruplicate cultures for HCV RNA levels and cytoxicity (on 96-well plates) were used. A total of 12 untreated control cultures, and triplicate cultures treated with α-interferon (concentrations of: 10 IU/mL, 3.3 IU/mL, 1.1 IU/mL and 0.37 IU/mL) and 2′C-Me-C (concentrations of: 30 μM, 10 μM, 3.3 μM and 1.1 μM) served as assay controls.
(§3) Intracellular HCV RNA levels were measured using a conventional blot hybridization method, in which HCV RNA levels are normalized to the levels of β-actin RNA in each individual culture (Okuse, et al., Antivir. Res. (2005) 65:23). Cytotoxicity was measured using an established neutral red dye uptake assay (Korba and Gerin, Antivir. Res. (1992) 19:55; Okuse, et al., Antivir. Res. (2005) 65:23). HCV RNA levels in the treated cultures are expressed as a percentage of the mean levels of RNA detected in untreated cultures. The absorbance of the internalized dye at […] (A510) was used for quantitative analysis.
(§4) Compounds were dissolved in 100% tissue culture grade DMSO (Sigma, Inc.) at 10 mM. Aliquots of test compounds sufficient for one daily treatment were made in individual tubes and all material was stored at −20° C. For the test, the compounds were suspended into culture medium at room temperature, and immediately added to the cell cultures. Compounds were analyzed separately in two groups with separate assay controls. […]
(§5) Values presented (±standard deviations [S.D.]) were calculated by linear regression analysis using data combined from all treated cultures. S.D. was calculated using the standard error of regression generated from the linear regression analyses (QuattroPro™). EC50 and EC90, drug concentrations at which a 2-fold, or a 10-fold depression of HCV RNA (relative to the average levels in untreated cultures), respectively, were observed; CC50, drug concentrations at which a 2-fold depression of neutral red dye uptake (relative to the average levels in untreated cultures) were observed.

AVA5 cell line = test: Cytotoxicity by neutral red dye uptake assay in the HCV replicon cultures; type: cell-based; conditions: 2-fold depression of neutral red dye uptake relative to untreated cultures; daily treatment for three days, assessed at 72 hours
Experimental: as §1, §2, §3, §4, §5

[2] = as above; type: cell-based; conditions: human; 2-fold depression of neutral red dye uptake relative to untreated cultures; daily treatment for three days, assessed at 72 hours
Experimental: as §1, §2, §3, §4, §5

Compound: CCOC(=O)C(COC(C)=O)(COP(=O)(N[C@@H](C)C(=O)OC)OC[C@H]1O[C@@H](n2cnc(C(N)=O)n2)[C@H](O)[C@@H]1O)C(=O)OCC (stereo partly drawn) [Compound 10]
- EC50 [1]: 8.7 µM
- EC90 [1]: 54 µM
- Antiviral activity (in words) [1]: showed activity
- CC50 (AVA5 cell line): > 100 µM

Compound: COC(=O)[C@H](C)NP(=O)(OC[C@H]1O[C@@H](n2ccc(N)nc2=O)[C@H](OC)[C@@H]1O)Oc1ccccc1 (stereo partly drawn) [Compound 13, 2′-O-Methylcytidine 5′-[O-phenyl-N-(S-2-methoxy-1-methyl-2-oxoethyl)]phosphoramidate]
- EC50 [1]: > 100 µM
- EC90 [1]: > 100 µM
- CC50 (AVA5 cell line): > 100 µM

Compound: C[C@@]1(O)[C@H](O)[C@@H](CO)O[C@H]1n1ccc(N)nc1=O [Compound 12a, 2′-β-methylcytidine, reference compound]
- EC50 [1]: 1.6 µM
- EC90 [1]: 5.9 µM
- CC50 (AVA5 cell line): > 100 µM

Compound: CCOC(=O)C(COC(C)=O)(COP(=O)(OC[C@H]1O[C@@H](n2cnc(C(N)=O)n2)C(O)C1O)OCC(COC(C)=O)(C(=O)OCC)C(=O)OCC)C(=O)OCC (stereo partly drawn) [Compound 11, Ribavirin 5′-bis[3-acetyloxy-2,2-bis(ethoxycarbonyl)propyl]phosphate]
- EC50 ([1]; Hepatitis C virus, Ava5): 1.6 ± 0.2 µM
- EC90 ([1]; Hepatitis C virus, Ava5): 4.4 ± 0.4 µM
- Antiviral activity (in words) [1]: showed activity
- CC50 at 72 h [2]: 9.7 ± 0.2 µM

Compound: COC(=O)[C@H](C)NP(=O)(OC[C@H]1O[C@@H](n2cnc(C(N)=O)n2)[C@@H](O)C1O)Oc1ccccc1 (stereo partly drawn) [Compound 9]
- EC50 ([1]; Hepatitis C virus, Ava5): > 100 µM
- EC90 ([1]; Hepatitis C virus, Ava5): > 100 µM
- Antiviral activity (in words) [1]: inactive
- CC50 at 72 h [2]: > 100 µM
